One assay concerns the target T1, human PPARγ2 (Homo sapiens, UniProt P37231).
T1 construct: the amino acids 182 to 505 of human PPARγ2; expressed in transfected cells
T1 sequence (P37231 182-505): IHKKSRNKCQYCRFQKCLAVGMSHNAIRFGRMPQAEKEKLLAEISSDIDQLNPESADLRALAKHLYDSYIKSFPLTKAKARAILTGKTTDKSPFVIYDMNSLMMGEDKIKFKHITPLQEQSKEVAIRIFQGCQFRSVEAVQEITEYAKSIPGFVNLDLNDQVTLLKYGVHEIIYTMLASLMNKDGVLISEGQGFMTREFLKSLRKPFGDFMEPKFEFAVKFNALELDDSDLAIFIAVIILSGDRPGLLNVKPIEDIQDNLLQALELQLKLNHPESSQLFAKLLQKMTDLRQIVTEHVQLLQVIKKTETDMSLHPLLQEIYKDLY
The experiment in a line: PPARγ activation activity, Gal4-PPARγ2 LBD luciferase transfection assay in COST cells. In kind it is cell-based. The note with it: Gal4-human PPARγ2 LBD luciferase reporter, 16 hours, rosiglitazone = 100%. As to the method: The agonistic activity of the compounds of the invention on PPARγ was measured based on the transfection assay using COST cells (DS Pharma Biomedical Co., Ltd., Osaka, Japan), which are the cell line derived from the kidney of the African green monkey. COST cells were cultured under 5% CO2 concentration, and DMEM medium containing 10% fetal bovine serum, glutamic acid, and antibiotics was used as a medium.
As an expression vector, a chimera in which DNA binding domain of Gal4, which is a yeast transcription factor, and ligand binding domain of human PPARγ2 are fused, i.e., a fused product between the amino acids 1 to 147 of Gal4 transcription factor and the amino acids 182 to 505 of human PPARγ2, was used. Furthermore, as a reporter vector, a firefly luciferase containing five copies of Gal4 recognition sequence in the promoter region was used. Plasmid transfection to the cells was performed according to a method which uses jetPEI (trade name, manufactured by Funakoshi Co., Ltd., Tokyo, Japan). Furthermore, β-galactosidase expression vector was employed as an internal standard.
After the transfection of the cells, the medium was replaced with a DMEM medium (containing 1% serum) added with the compound, and the cells were further cultured for 16 hours. After that, the luciferase activity and β-galactosidase activity in the cell lysis solution were measured.
For the present test, dimethyl sulfoxide (DMSO) was used for dissolution and dilution of the test compounds, and during the cell treatment, the DMSO concentration in DMEM medium (containing 1% serum) was adjusted to 0.1%. As a positive compound, rosiglitazone (trade name, manufactured by ALEXIS Corporation, Switzerland) was used. The luciferase activity (%) of the test compounds (1 to 30 μmol/L) was calculated when the luciferase activity of rosiglitazone (3 to 10 μmol/L) is 100% and the luciferase activity in the absence of the test compound is 0%. The 50% effective concentration of the test compound (EC50, 50% effect concentration) was calculated by using SAS Preclinical Package Ver 5.0 (trade name, manufactured by SAS institute Japan Co., Tokyo, Japan), which is a statistical analysis program.
Under the same condition, the PPARγ activation activity of telmisartan, i.e., EC50, was 1 to 5 μM. In addition, it was confirmed that compounds of Examples not shown in Table 2 also have PPARγ activation activity at a concentration of 30 μM.
On to `CCCCc1nc(C)n(-c2ncc(OCC)cn2)c(=O)c1Cc1ccc(-c2ccccc2S(=O)(=O)NC(=O)C2CC2)cc1` [Example 8, N-{4′-{[4-butyl-1-(5-ethoxypyrimidin-2-yl)-2-methyl-6-oxo-1,6-dihydropyrimidin-5-yl]methyl}biphenyl-2-ylsulfonyl}cyclopropanecarboxamide], for which a half-maximal effect (EC50) was put at 3690 nM.
On the same count and under the same terms, for `CCCCc1nc(C2CC2)n(-c2ncc(OC)cn2)c(=O)c1Cc1ccc(-c2ccccc2S(=O)(=O)NC(=O)C2CC2)cc1` [Example 15, N-{4′-{[4-butyl-2-cyclopropyl-1-(5-methoxypyrimidin-2-yl)-6-oxo-1,6-dihydropyrimidin-5-yl)methyl)biphenyl-2-ylsulfonyl]cyclopropanecarboxamide] the value was 1050 nM.
In turn, `CCCCCC(=O)NS(=O)(=O)c1ccccc1-c1ccc(Cc2c(CCCC)nc(C)n(-c3ncc(OCC)cn3)c2=O)cc1` [Example 7, N-{4′-{[4-butyl-1-(5-ethoxypyrimidin-2-yl)-2-methyl-6-oxo-1,6-dihydropyrimidin-5-yl]methyl}biphenyl-2-ylsulfonyl}hexanamide] came in with an EC50 of 2210 nM.
Still for that read-out and setting: for `CCCCc1nc(CC)n(-c2ncc(OCC)cn2)c(=O)c1Cc1ccc(-c2ccccc2S(=O)(=O)NC(=O)C2CC2)cc1` [Example 13, N-{4′-{[4-butyl-1-(5-ethoxypyrimidin-2-yl)-2-ethyl-6-oxo-1,6-dihydropyrimidin-5-yl]methyl}biphenyl-2-ylsulfonyl}cyclopropanecarboxamide] the value was 2790 nM; for `CCCCc1nc(C2CC2)n(-c2ncc(OCC)cn2)c(=O)c1Cc1ccc(-c2ccccc2S(=O)(=O)NC(=O)C2CC2)cc1` [Example 16, N-{4′-{[4-butyl-2-cyclopropyl-1-(5-ethoxypyrimidin-2-yl)-6-oxo-1,6-dihydropyrimidin-5-yl]methyl}biphenyl-2-ylsulfonyl}cyclopropanecarboxamide], 2350 nM.
The same measure, in the same setting: for `CCCCc1nc(C2CCCCC2)n(-c2ncc(OCC)cn2)c(=O)c1Cc1ccc(-c2ccccc2S(=O)(=O)NC(=O)C2CC2)cc1` [Example 19, N-{4′-{[4-butyl-2-cyclohexyl-1-(5-ethoxypyrimidin-2-yl)-6-oxo-1,6-dihydropyrimidin-5-yl]methyl}biphenyl-2-ylsulfonyl}cyclopropanecarboxamide] the value was 510 nM; for `CCCCc1nc(C2CCCC2)n(-c2ncc(OCC)cn2)c(=O)c1Cc1ccc(-c2ccccc2S(=O)(=O)NC(=O)C2CC2)cc1` [Example 18, N-{4′-{[4-butyl-2-cyclopentyl-1-(5-ethoxypyrimidin-2-yl)-6-oxo-1,6-dihydropyrimidin-5-yl]methyl}biphenyl-2-ylsulfonyl}cyclopropanecarboxamide], 710 nM.
`CCCCc1nc(C(C)C)n(-c2ncc(OCC)cn2)c(=O)c1Cc1ccc(-c2ccccc2S(=O)(=O)NC(=O)C2CC2)cc1` [Example 14, N-{4′-{[4-butyl-1-(5-ethoxypyrimidin-2-yl)-2-isopropyl-6-oxo-1,6-dihydropyrimidin-5-yl)methyl)biphenyl-2-ylsulfonyl]cyclopropanecarboxamide]: the midpoint of the response, the EC50, lay at 1360 nM.
For the molecule `CCCCc1nc(C)n(-c2ncc(OC(F)F)cn2)c(=O)c1Cc1ccc(-c2ccccc2S(=O)(=O)NC(=O)C2CC2)cc1` [Example 11, N-{4′-{{4-butyl-1-[5-(difluoromethoxy)pyrimidin-2-yl]-2-methyl-6-oxo-1,6-dihydropyrimidin-5-yl}methyl}biphenyl-2-ylsulfonyl}cyclopropanecarboxamide], the response was half-maximal at 3370 nM (EC50).
Regarding `CCCc1nc2c(C)cc(-c3nc4ccccc4n3C)cc2n1Cc1ccc(-c2ccccc2C(=O)O)cc1` [telmisartan, reference compound], the concentration for a half-maximal effect (EC50) lay in the range of 1000 to 5000 nM.
`CCCCc1nc(C2CCC2)n(-c2ncc(OCC)cn2)c(=O)c1Cc1ccc(-c2ccccc2S(=O)(=O)NC(=O)C2CC2)cc1` [Example 17, N-{4′-{[4-butyl-2-cyclobutyl-1-(5-ethoxypyrimidin-2-yl)-6-oxo-1,6-dihydropyrimidin-5-yl]methyl}biphenyl-2-ylsulfonyl}cyclopropanecarboxamide] came in with an EC50 of 960 nM.

Another assay concerns the target T2, angiotensin II type 1 receptor (Oryctolagus cuniculus, UniProt P34976).
T2 construct: By using a specimen of isolated rabbit blood vessels; from tissue; host or cells: rabbit thoracic aorta ring (New Zealand White, male)
T2 sequence (P34976 1-359): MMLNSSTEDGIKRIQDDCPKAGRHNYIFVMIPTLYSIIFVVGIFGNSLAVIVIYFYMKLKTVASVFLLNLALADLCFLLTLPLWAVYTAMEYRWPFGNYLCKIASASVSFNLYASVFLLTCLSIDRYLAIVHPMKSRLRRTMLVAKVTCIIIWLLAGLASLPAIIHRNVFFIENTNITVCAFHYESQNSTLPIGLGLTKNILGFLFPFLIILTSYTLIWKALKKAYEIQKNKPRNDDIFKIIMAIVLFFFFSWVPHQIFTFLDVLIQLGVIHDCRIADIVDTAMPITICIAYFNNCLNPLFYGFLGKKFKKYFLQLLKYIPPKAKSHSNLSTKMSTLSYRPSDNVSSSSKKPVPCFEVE
The experiment in a line: Angiotensin II antagonistic activity in isolated rabbit blood vessels (angiotensin II-induced contraction of thoracic aorta ring). The note with it: 0.1 μM compound, angiotensin II (10 nM)-induced contraction, read-out: Angiotensin II activity inhibition rate (%) at 0.1 μM concentration. The protocol:
By using a specimen of isolated rabbit blood vessels, antagonistic activity of the compounds of the invention against angiotensin II type 1 receptor was estimated from a dose-response curve of angiotensin II-induced blood vessel contraction. Specifically, the specimen of thoracic aorta ring of a rabbit (New Zealand White: male, 2.4 to 3.0 kg) was suspended in a magnus bath filled with Krebs-Henseleite buffer (composition: 118 mM NaCl, 4.7 mM KCl, 2.55 mM CaCl2, 1.18 mM MgSO4, 1.18 mM KH2PO4, 24.88 mM NaHCO3, and 11.1 mM D-glucose), and angiotensin II (10 nM)-induced contraction was obtained in the presence of the compounds of each example (1 nmol to 10 μmol/L). During the measurement, the inside temperature of the magnus bath was maintained at 37° C. and the bath was continuously ventilated with a sufficient amount of mixed gas (95% O2 and 5% CO2). The angiotensin II-induced contraction was converted into a relative value (%) that is based on the angiotensin II (10 nM)-induced contraction in the absence of the compounds of each example. From the concentration-response curve obtained therefrom, 50% inhibition concentration (IC50 value) was calculated by using SAS Preclinical Package Ver 5.0 (trade name, manufactured by SAS institute Japan Co., Tokyo, Japan), which is a statistical analysis program.
Consider `CCCCc1nc(C)n(-c2ncc(OCC)cn2)c(=O)c1Cc1ccc(-c2ccccc2S(=O)(=O)NC(=O)C2CC2)cc1` [Example 8, N-{4′-{[4-butyl-1-(5-ethoxypyrimidin-2-yl)-2-methyl-6-oxo-1,6-dihydropyrimidin-5-yl]methyl}biphenyl-2-ylsulfonyl}cyclopropanecarboxamide], for which the inhibition at 0.1 µM worked out at 77.5%.
In the case of `CCCCc1nc(C)n(-c2ncc(OC)cn2)c(=O)c1Cc1ccc(-c2ccccc2S(=O)(=O)NC(=O)C2CCCC2)cc1` [Example 4, N-{4′-{[4-butyl-1-(5-methoxypyrimidin-2-yl)-2-methyl-6-oxo-1,6-dihydropyrimidin-5-yl]methyl}biphenyl-2-ylsulfonyl}cyclopentanecarboxamide], the inhibition at 0.1 µM was found to be 100%.
With `CCCCCC(=O)NS(=O)(=O)c1ccccc1-c1ccc(Cc2c(CCCC)nc(C)n(-c3ncc(OCC)cn3)c2=O)cc1` [Example 7, N-{4′-{[4-butyl-1-(5-ethoxypyrimidin-2-yl)-2-methyl-6-oxo-1,6-dihydropyrimidin-5-yl]methyl}biphenyl-2-ylsulfonyl}hexanamide], the inhibition at 0.1 µM came out at 89.3%.
Turning to `CCCCCC(=O)NS(=O)(=O)c1ccccc1-c1ccc(Cc2c(CCCC)nc(C)n(-c3ncc(OC)cn3)c2=O)cc1` [Example 2, N-{4′-{[4-butyl-1-(5-methoxypyrimidin-2-yl)-2-methyl-6-oxo-1,6-dihydropyrimidin-5-yl]methyl}biphenyl-2-ylsulfonyl}hexanamide], the inhibition at 0.1 µM was 91.9%.
For the molecule `CCCCc1nc(C)n(-c2ncc(OC)cn2)c(=O)c1Cc1ccc(-c2ccccc2S(=O)(=O)NC(=O)CC)cc1` [Example 1, N-{4′-{[4-butyl-1-(5-methoxypyrimidin-2-yl)-2-methyl-6-oxo-1,6-dihydropyrimidin-5-yl]methyl}biphenyl-2-ylsulfonyl}propionamide], the inhibition at 0.1 µM was determined as 71.7%.
Regarding `CCCCc1nc(C)n(-c2ncc(OC)cn2)c(=O)c1Cc1ccc(-c2ccccc2S(=O)(=O)NC(=O)C2CC2)cc1` [Example 3, N-{4′-{[4-butyl-1-(5-methoxypyrimidin-2-yl)-2-methyl-6-oxo-1,6-dihydropyrimidin-5-yl]methyl}biphenyl-2-ylsulfonyl}cyclopropanecarboxamide], the inhibition at 0.1 µM came to 90%.
Turning to `CCCCc1nc(C)n(-c2ncc(OCC)cn2)c(=O)c1Cc1ccc(-c2ccccc2S(=O)(=O)NC(=O)C2CCCCC2)cc1` [Example 10, N-{4′-{[4-butyl-1-(5-ethoxypyrimidin-2-yl)-2-methyl-6-oxo-1,6-dihydropyrimidin-5-yl]methyl}biphenyl-2-ylsulfonyl}cyclohexanecarboxamide], the inhibition at 0.1 µM came out at 81.9%.
Consider `CCCCc1nc(C)n(-c2ncc(OC)cn2)c(=O)c1Cc1ccc(-c2ccccc2S(=O)(=O)NC(=O)C2CCCCC2)cc1` [Example 5, N-{4′-{[4-butyl-1-(5-methoxypyrimidin-2-yl)-2-methyl-6-oxo-1,6-dihydropyrimidin-5-yl]methyl}biphenyl-2-ylsulfonyl}cyclohexanecarboxamide], for which the inhibition at 0.1 µM amounted to 92.4%.

(Values after patent publication US20120122906A1, “NOVEL SULFONAMIDE DERIVATIVE AND PHARMACEUTICAL PRODUCT CONTAINING SAME” (KOWA COMPANY, LTD., priority 2009, published 2012).)
